Data as given in the supplement of paper PMC11061612.

Columns and labels:
Experiment in all cases: combination Emax (second highest fraction inhibited in the dose matrix, 72 h); higher = more inhibition; extreme values may be limits of the assay
[1] = test system: Calu-6 (Non-Small Cell Lung Carcinoma)
In short: (§1)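 Cell lines grown in DMEM/F12 or RPMI with 10% FBS were plated in 1536-well plates and held 24 hours at 37°C, 5% CO2 before 72 hours of exposure to two-drug dose matrices, with DMSO typically at 0.2%. CellTiter-Glo 2.0 luminescence gave viability, which was converted to inhibition. Vehicle wells were set to 0 and blank wells to 1. Combination Emax is the second-highest inhibition in the matrix, and Bliss excess is the observed combination effect minus the expected EA + EB − EA·EB, where EA and EB are the single-agent effects.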

786-0 (Kidney Carcinoma) = test system: 786-0 (Kidney Carcinoma)
In short: as §1

[2] = test system: HSC-3 (Oral Cavity Carcinoma)
In short: as §1

[3] = test system: HTC-C3 (Thyroid Gland Carcinoma)
In short: as §1

RT4 (Bladder Carcinoma) = test system: RT4 (Bladder Carcinoma)
In short: as §1

[4] = test system: AsPC-1 (Pancreatic Carcinoma)
In short: as §1

[5] = test system: FLO-1 (Esophageal Adenocarcinoma)
In short: as §1

[6] = test system: LAMA-84 (Chronic Myelogenous Leukemia)
In short: as §1

[7] = test system: OCI-AML5 (Acute Myeloid Leukemia)
In short: as §1

[8] = test system: SW684 (Other Solid Carcinomas)
In short: as §1

[9] = test system: NCI-H1755 (Lung Adenocarcinoma)
In short: as §1

[10] = test system: OV-90 (Ovarian Carcinoma)
In short: as §1

[11] = test system: SK-MM-2 (Plasma Cell Myeloma)
In short: as §1

[12] = test system: NCI-H810 (Non-Small Cell Lung Carcinoma)
In short: as §1

[13] = test system: JHH-1 (Hepatocellular Carcinoma)
In short: as §1

[14] = test system: Caov-3 (Ovarian Carcinoma)
In short: as §1

[15] = test system: SJRH30 (Rhabdomyosarcoma)
In short: as §1

[16] = test system: LOUCY (T-Lymphoblastic Leukemia)
In short: as §1

[17] = test system: RPMI-8866 (Chronic Myelogenous Leukemia)
In short: as §1

ES-2 (Ovarian Carcinoma) = test system: ES-2 (Ovarian Carcinoma)
In short: as §1

| Structure (SMILES) | combination Emax [1] | combination Emax (786-0 (Kidney Carcinoma)) | combination Emax [2] | combination Emax [3] | combination Emax (RT4 (Bladder Carcinoma)) | combination Emax [4] | combination Emax [5] | combination Emax [6] | combination Emax [7] | combination Emax [8] | combination Emax [9] | combination Emax [10] | combination Emax [11] | combination Emax [12] | combination Emax [13] | combination Emax [14] | combination Emax [15] | combination Emax [16] | combination Emax [17] | combination Emax (ES-2 (Ovarian Carcinoma)) |
| --- | --- | --- | --- | --- | --- | --- | --- | --- | --- | --- | --- | --- | --- | --- | --- | --- | --- | --- | --- | --- |
| CC1(C)CCC(CN2CCN(c3ccc(C(=O)NS(=O)(=O)c4ccc(NCC5CCOCC5)c([N+](=O)[O-])c4)c(Oc4cnc5[nH]ccc5c4)c3)CC2)=C(c2ccc(Cl)cc2)C1 [Venetoclax] + COc1cc(Nc2ncc3c(n2)-c2ccc(Cl)cc2C(c2c(F)cccc2OC)=NC3)ccc1C(=O)O [Alisertib] (first compound max 1 µM, 7x7, partner max 10 µM) | 0.584 | 0.37 | 0.61 | 0.365 | 0.791 | 0.136 | 0.514 | 0.934 | 1 | 0.253 | 0.66 | 0.248 | 1 | 0.53 | 0.567 | 0.838 | 0.423 | 1 | 0.89 | 0.983 |
| CN(C)CCCOc1ccc(-c2ccc3ncc4c(c3c2)n(C2CCOCC2)c(=O)n4C)cn1 [AZD0156] + C=CCn1c(=O)c2cnc(Nc3ccc(N4CCN(C)CC4)cc3)nc2n1-c1cccc(C(C)(C)O)n1 [AZD1775] (first compound max 1 µM, partner max 1 µM) | 0.722 | 0.536 | 0.243 | 0.351 | 0.314 | 0.317 | 0.805 | 0.942 | 0.95 | 0.107 | 0.749 | 0.454 | 0.705 | 0.889 | 0.463 | 0.65 | 0.809 | 1 | 0.965 | 0.616 |
| CCc1c2c(nc3ccc(O)cc13)-c1cc3c(c(=O)n1C2)COC(=O)[C@]3(O)CC [SN-38] + CN(C)CCCOc1ccc(-c2ccc3ncc4c(c3c2)n(C2CCOCC2)c(=O)n4C)cn1 [AZD0156] (first compound max 0.3 µM, 7x7, partner max 1 µM) | 0.762 | 0.884 | 0.855 | 0.764 | 0.819 | 0.135 | 0.664 | 0.94 | 0.998 | 0.462 | 0.752 | 0.457 | 0.883 | 0.51 | 0.316 | 0.977 | 0.359 | 0.759 | 0.982 | 0.912 |
| CC1(C)CCC(CN2CCN(c3ccc(C(=O)NS(=O)(=O)c4ccc(NCC5CCOCC5)c([N+](=O)[O-])c4)c(Oc4cnc5[nH]ccc5c4)c3)CC2)=C(c2ccc(Cl)cc2)C1 [Venetoclax] + C[C@@H](Nc1cc(F)cc(F)c1)c1cc(C(=O)N(C)C)cc2c(=O)cc(N3CCOCC3)oc12 [AZD8186] (first compound max 1 µM, 7x7, partner max 3 µM) | 0.125 | 0.267 | 0.0933 | 0.149 | 0.174 | 0.104 | 0.543 | 0.313 | 1 | 0.315 | 0.588 | 0.164 | 1 | 0.0592 | 0.172 | 0.797 | 0.0499 | 1 | 0.594 | 0.159 |
| CN(C)CCCOc1ccc(-c2ccc3ncc4c(c3c2)n(C2CCOCC2)c(=O)n4C)cn1 [AZD0156] + C[C@@H]1COCCN1C2=NC(=NC(=C2)C3(CC3)[S@](=N)(=O)C)C4=C5C=CNC5=NC=C4 [AZD6738] (first compound max 1 µM, 7x7, partner max 10 µM) | 0.777 | 0.641 | 0.487 | 0.823 | 0.411 | 0.454 | 0.691 | 0.97 | 0.917 | 0.301 | 0.816 | 0.437 | 0.625 | 0.762 | 0.596 | 0.663 | 0.894 | 1 | 0.967 | 0.808 |
| Cc1c2c(nn1C)CSCc1cc(n(C)n1)CSc1cc(c3ccccc3c1)OCCCc1c(C(=O)O)n(C)c3c-2c(Cl)ccc13 [AZD5991] + Cc1cc2ncnn2cc1Nc1ncc2c(n1)n(C1CCOCC1)c(=O)n2C [AZD7648] (first compound max 1 µM, 7x7, partner max 10 µM) | 0.29 | 0.251 | 0.52 | 0.245 | 0.358 | 0.246 | 0.489 | 0.22 | 1 | 0.298 | 0.418 | 0.257 | 0.375 | 0.514 | 0.35 | 0.388 | 0.478 | 0.82 | 0.533 | 0.313 |
